Measured values published in patent US5106871A, “Anti-ulcer agent comprising chalcone derivative as effective ingredient and novel chalcone derivative” (Tsumura & Co., priority 1986, dated 1992).
Read-outs that look alike come from different tables or passages of the source.

Assays:
Type in all cases: in vivo, male rats of the Wister line
gastric mucous membrane [1] = assay: 100% ethanol-induced gastric mucous membrane damage in rats (Experimental Example 1)
Description: After 1 hour from the administration of 100% ethanol, the abdominal operation was carried out, and the length of the damaged region on the gastric mucous membrane was measured as the mucous membrane damage coefficient and compared with the value obtained in the control group. Note, a 0.5% solution of CMC not containing a compound of formula I was intraabdominally or orally administered in the control group.

gastric mucous membrane [2] = assay: 0.6N hydrochloric acid-induced gastric mucous membrane damage in rats (Experimental Example 2); details: for Inhibition Ratio: vs control
Description: A suspension of a compound of formula I in a […] of CMC (carboxymethyl cellulose) was intraabdominally administered in male rats of the Wister line (each group consisting of 10 rats) having a body weight of 180 to 200 g, which had been made to fast for 24 hours, and after 30 minutes, 1 ml of 0.6N hydrochloric acid was orally administered. After 1 hour from the administration of 0.6N hydrochloric acid, the abdominal operation was carried out, and the length of the damage on the gastric mucous membrane was measured as the mucous membrane damage coefficient and compared with the value obtained in the control group in the control group. Note, a 0.5% solution of CMC was intraabdominally administered. Data of the inhibition ratio calculated according to the following formula is shown in Tables 5 through 7: [formula] wherein A stands for the value obtained in the control group and B stands for the value obtained in the group in which the compound of formula I had been administered.

gastric mucous membrane [3] = assay: 150 mM hydrochloric acid/60% ethanol-induced gastric mucous membrane damage in rats (Experimental Example 3); details: 150 mM HCl/60% ethanol; for Inhibition Ratio: vs control
Description: A suspension of a compound of formula I in a 0.5 % solution of CMC (carboxymethyl cellulose) was intraabdominally or orally administered in male rats of the Wister line (each group consisting of 10 rats) having a body weight of 180 to 200 g, which had been made to fast for 24 hours, and after 30 minutes, 1 ml of a liquid mixture of 150 mM hydrochloric acid and 60% ethanol was orally administered. After 1 hour from the administration of the liquid mixture of 150 mM hydrochloric acid and 60% ethanol, the abdominal operation was carried out, and the length of the damage on the gastric mucous membrane was measured as the mucous membrane damage coefficient and compared with the value obtained in the control group. Note, a 0.5% solution of CMC not containing a compound of formula I was intra-abdominally or orally administered in the control group. Data of the inhibition ratio calculated according to the following formula is shown in Tables 8 through 10: [formula] wherein A stands for the value obtained in the control group and B stands for the value obtained in the group in which the compound of formula I had been administered.

[4] = Rattus norvegicus, po, 1 h, Table 2, 100 mg/kg p.o., vs control, read-out: Inhibition Ratio
[5] = Table 2, 100 mg/kg p.o., control 87.7
[6] = Rattus norvegicus, ip, 1 h, Table 3, 100 mg/kg i.p., vs control, read-out: Inhibition Ratio
[7] = Table 3, 100 mg/kg i.p., control 72.63
[8] = Table 6, 100 mg/kg i.p., control 106.3
[9] = Table 9, 30 mg/kg p.o., control 84.3
[10] = Table 10, 30 mg/kg i.p., control 110.7
[11] = Rattus norvegicus, ip, 1 h, Table 4, 100 mg/kg i.p., vs control, read-out: Inhibition Ratio
[12] = Table 4, 100 mg/kg i.p., control 72.3
[13] = Table 8, 100 mg/kg p.o., control 119.0

COc1ccc(CCC(=O)c2c(OC)cc(OC)c(CCC(C)C)c2OCC(=O)O)cc1 [Specific Example 35, 1-(2-carboxymethoxy-4,6-dimethoxy-3-isopentylphenyl)-3-(4-methoxyphenyl)-1-propanone]
inhibition in vivo at 35 mg/kg (gastric mucous membrane [1]; Rattus norvegicus, ip, 1 h, Table 1, 35 mg/kg i.p., vs control, read-out: Inhibition Ratio): 67.2%
inhibition in vivo at 100 mg/kg (gastric mucous membrane [1]; [4]): 81.2%
Mucous Membrane Damage Coefficient (gastric mucous membrane [1]; Table 1, 35 mg/kg i.p., control 102.6): 33.7 mm
Mucous Membrane Damage Coefficient (gastric mucous membrane [1]; [5]): 16.5 mm
Mucous Membrane Damage Coefficient (gastric mucous membrane [2]; Table 7, 100 mg/kg i.p., control 133.8): 65.8 mm
Inhibition Ratio (gastric mucous membrane [2]; Table 7, 100 mg/kg i.p.): 50.8%

COc1cc(CCC(=O)c2c(OC)cc(OC)c(CCC(C)C)c2OCC(=O)O)ccc1O [Specific Example 5, 1-(2-carboxymethoxy-4,6-dimethoxy-3-isopentylphenyl)-3-(4-hydroxy-3-methoxyphenyl)-1-propanone]
inhibition in vivo at 100 mg/kg (gastric mucous membrane [1]; [6]): 27.9%
Mucous Membrane Damage Coefficient (gastric mucous membrane [1]; [7]): 52.38 mm

COc1ccc(/C=C/C(=O)c2c(OC)cc(OC)c(CCC(C)C)c2OCC(=O)O)cc1 [Specific Example 9, 2'-carboxymethoxy-4,4',6'-trimethoxy-3'-isopentylchalcone]
inhibition in vivo at 100 mg/kg (gastric mucous membrane [1]; [6]): 93.1%
Mucous Membrane Damage Coefficient (gastric mucous membrane [1]; [7]): 5.00 mm
Mucous Membrane Damage Coefficient (gastric mucous membrane [2]; [8]): 39.6 mm
Inhibition Ratio (gastric mucous membrane [2]; Table 6, 100 mg/kg i.p.): 62.3%

O=C(CCc1ccc(O)c(O)c1)c1ccc(O)cc1O [Specific Example 27, 1-(2,4-dihydroxyphenyl)-3-(3,4-dihydroxyphenyl)-1-propanone]
Mucous Membrane Damage Coefficient (gastric mucous membrane [3]; [9]): 1.5 mm
Inhibition Ratio (gastric mucous membrane [3]; Table 9, 30 mg/kg p.o.): 98.2%
Mucous Membrane Damage Coefficient (gastric mucous membrane [3]; [10]): 60.0 mm
Inhibition Ratio (gastric mucous membrane [3]; Table 10, 30 mg/kg i.p.): 45.8%

COc1ccc(CCC(=O)c2c(OC)cc(OC)cc2OCC(=O)O)cc1 [Specific Example 11, 1-(2-carboxymethoxy-4,6-dimethoxyphenyl)-3-(4-methoxyphenyl)-1-propanone]
inhibition in vivo at 100 mg/kg (gastric mucous membrane [1]; [6]): 92.8%
Mucous Membrane Damage Coefficient (gastric mucous membrane [1]; [7]): 5.25 mm
Mucous Membrane Damage Coefficient (gastric mucous membrane [2]; [8]): 36.6 mm
Inhibition Ratio (gastric mucous membrane [2]; Table 6, 100 mg/kg i.p.): 65.6%

CC(C)CCc1c(O)cc(O)c(C(=O)CCc2ccc(O)cc2)c1OCC(=O)O [Specific Example 32, 1-(2-carboxymethoxy-4,6-dihydroxy-3-isopentylphenyl)-3-(4-hydroxyphenyl)-1-propanone]
inhibition in vivo at 100 mg/kg (gastric mucous membrane [1]; [11]): 61.3%
Mucous Membrane Damage Coefficient (gastric mucous membrane [1]; [12]): 28.0 mm

O=C(/C=C/c1ccc(O)cc1)c1ccc(O)cc1O [Specific Example 15, 2',4,4'-trihydroxychalcone]
Mucous Membrane Damage Coefficient (gastric mucous membrane [3]; [9]): 30.0 mm
Inhibition Ratio (gastric mucous membrane [3]; Table 9, 30 mg/kg p.o.): 64.4%
Mucous Membrane Damage Coefficient (gastric mucous membrane [3]; [10]): 49.5 mm
Inhibition Ratio (gastric mucous membrane [3]; Table 10, 30 mg/kg i.p.): 55.3%

O=C(CCc1ccc(O)cc1)c1c(O)cc(O)cc1O [Specific Example 23, 1-(2,4,6-trihydroxyphenyl)-3-(4-hydroxyphenyl)-1-propanone]
inhibition in vivo at 100 mg/kg (gastric mucous membrane [1]; [11]): 36.7%
Mucous Membrane Damage Coefficient (gastric mucous membrane [1]; [12]): 45.8 mm
Mucous Membrane Damage Coefficient (gastric mucous membrane [3]; [13]): 67.9 mm
Inhibition Ratio (gastric mucous membrane [3]; Table 8, 100 mg/kg p.o.): 43.0%

O=C(CCc1ccc(O)cc1)c1ccc(O)cc1O [Specific Example 22, 1-(2,4-dihydroxyphenyl)-3-(4-hydroxyphenyl)-1-propanone]
Mucous Membrane Damage Coefficient (gastric mucous membrane [3]; [13]): 1.4 mm
Inhibition Ratio (gastric mucous membrane [3]; Table 8, 100 mg/kg p.o.): 98.8%
Mucous Membrane Damage Coefficient (gastric mucous membrane [3]; [9]): 57.2 mm
Inhibition Ratio (gastric mucous membrane [3]; Table 9, 30 mg/kg p.o.): 32.1%
Mucous Membrane Damage Coefficient (gastric mucous membrane [3]; [10]): 54.2 mm
Inhibition Ratio (gastric mucous membrane [3]; Table 10, 30 mg/kg i.p.): 51.0%

COc1ccc(CCC(=O)c2ccc(OC)c(CCC(C)C)c2O)cc1 [Specific Example 33, 1-(2-hydroxy-4-methoxy-3-isopentylphenyl)-3-(4-methoxyphenyl)-1-propanone]
inhibition in vivo at 100 mg/kg (gastric mucous membrane [1]; [11]): 40.1%
Mucous Membrane Damage Coefficient (gastric mucous membrane [1]; [12]): 3.3 mm

CC(=O)Oc1c(CC=C(C)C)c(O)cc(O)c1C(=O)CCc1ccc(O)cc1 [Specific Example 24, 1-[2-acetoxy-4,6-hydroxy-3-(3-methyl-2-butenyl)phenyl]-3-(4-hydroxyphenyl)-1-propanone]
inhibition in vivo at 100 mg/kg (gastric mucous membrane [1]; [11]): 23%
Mucous Membrane Damage Coefficient (gastric mucous membrane [1]; [12]): 55.7 mm

CC(C)CCc1cc(CCC(=O)c2c(O)cc(O)c(CCC(C)C)c2O)ccc1O [Specific Example 37, 1-(2,4,6-trihydroxy-3-isopentylphenyl)-3-(4-hydroxy-3-isopentylphenyl)-1-propanone]
inhibition in vivo at 100 mg/kg (gastric mucous membrane [1]; [11]): 31.1%
Mucous Membrane Damage Coefficient (gastric mucous membrane [1]; [12]): 49.8 mm

COc1ccc(CCC(=O)c2c(OC)cc(OC)c(CCC(C)C)c2OCC(=O)O)cc1O [Specific Example 6, 1-(2-carboxymethoxy-4,6-dimethoxy-3-isopentylphenyl)-3-(3-hydroxy-4-methoxyphenyl)-1-propanone]
inhibition in vivo at 100 mg/kg (gastric mucous membrane [1]; [6]): 32.4%
Mucous Membrane Damage Coefficient (gastric mucous membrane [1]; [7]): 49.13 mm

O=C(CCc1ccc(O)c(O)c1)c1c(O)cc(O)cc1O [Specific Example 28, 1-(2,4,6-trihydroxyphenyl)-3-(3,4-dihydroxyphenyl)-1-propanone]
inhibition in vivo at 100 mg/kg (gastric mucous membrane [1]; [11]): 90%
Mucous Membrane Damage Coefficient (gastric mucous membrane [1]; [12]): 7.2 mm
Mucous Membrane Damage Coefficient (gastric mucous membrane [3]; [13]): 15.7 mm
Inhibition Ratio (gastric mucous membrane [3]; Table 8, 100 mg/kg p.o.): 86.8%

COc1ccc(/C=C/C(=O)c2ccc(OC)c(CC=C(C)C)c2O)cc1 [Specific Example 16, 2'-hydroxy-4,4'-dimethoxy-3'-(3-methyl-2-butenyl)chalcone]
inhibition in vivo at 100 mg/kg (gastric mucous membrane [1]; [11]): 36.4%
Mucous Membrane Damage Coefficient (gastric mucous membrane [1]; [12]): 46.0 mm

COc1ccc(/C=C/C(=O)c2ccc(OC)c(CC=C(C)C)c2OCC(=O)O)cc1 [Specific Example 8, 2'-carboxymethoxy-4,4'-dimethoxy-3'-(3-methyl-2-butenyl)chalcone]
inhibition in vivo at 100 mg/kg (gastric mucous membrane [1]; [6]): 78.5%
Mucous Membrane Damage Coefficient (gastric mucous membrane [1]; [7]): 15.63 mm
Mucous Membrane Damage Coefficient (gastric mucous membrane [2]; [8]): 62.4 mm
Inhibition Ratio (gastric mucous membrane [2]; Table 6, 100 mg/kg i.p.): 41.3%

O=C(/C=C/c1ccc(O)c(O)c1)c1ccc(O)cc1O [Specific Example 19, 2',3,4,4'-tetrahydroxychalcone]
Mucous Membrane Damage Coefficient (gastric mucous membrane [3]; [9]): 10.5 mm
Inhibition Ratio (gastric mucous membrane [3]; Table 9, 30 mg/kg p.o.): 87.5%

COc1ccc(CCC(=O)c2c(OC)cc(OC)c(CC=C(C)C)c2OCC(=O)O)cc1 [Specific Example 12, 1-[2-carboxymethoxy-4,6-dimethoxy-3-(3-methyl-2-butenyl)phenyl]-3-(4-methoxyphenyl) -propanone]
inhibition in vivo at 100 mg/kg (gastric mucous membrane [1]; [6]): 43.2%
Mucous Membrane Damage Coefficient (gastric mucous membrane [1]; [7]): 41.25 mm
Mucous Membrane Damage Coefficient (gastric mucous membrane [2]; [8]): 76.6 mm
Inhibition Ratio (gastric mucous membrane [2]; Table 6, 100 mg/kg i.p.): 27.8%

COc1ccc(CCC(=O)c2ccc(OC)c(CCC(C)C)c2OCC(=O)O)cc1 [Specific Example 3, 1-(carboxymethoxy-4-methoxy-3-isopentylphenyl)-3-(4-methoxyphenyl)-1-propanone]
inhibition in vivo at 100 mg/kg (gastric mucous membrane [1]; Rattus norvegicus, ip, 1 h, Table 1, 100 mg/kg i.p., vs control, read-out: Inhibition Ratio): 63.4%
inhibition in vivo at 100 mg/kg (gastric mucous membrane [1]; [4]): 93.2%
Mucous Membrane Damage Coefficient (gastric mucous membrane [1]; Table 1, 100 mg/kg i.p., control 102.6): 37.6 mm
Mucous Membrane Damage Coefficient (gastric mucous membrane [1]; [5]): 6.0 mm
Mucous Membrane Damage Coefficient (gastric mucous membrane [2]; Table 5, 100 mg/kg i.p., control 65.8): 61.8 mm
Inhibition Ratio (gastric mucous membrane [2]; Table 5, 100 mg/kg i.p.): 68.1%

COc1cc(CCC(=O)c2c(OC)cc(OC)c(CCC(C)C)c2OCC(=O)O)cc(OC)c1O [Specific Example 7, 1-(2-carboxymethoxy-4,6-dimethoxy-3-isopentylphenyl)-3-(4-hydroxy-3,5-dimethoxyphenyl)-1-propanone]
inhibition in vivo at 100 mg/kg (gastric mucous membrane [1]; [6]): 32.5%
Mucous Membrane Damage Coefficient (gastric mucous membrane [1]; [7]): 49.00 mm
